From ChEMBL document CHEMBL3045092, “Synthesis and Fungicidal Activity of 2-Imino-3-(4-arylthiazol-2-yl)-thiazolidin-4-ones and Their 5-Arylidene Derivatives” (2000)

Key:
Assay type in all cases: functional
Settings in all cases: read-out: GI
[1] = system: Botrytis cinerea; assay: Fungicidal activity against Botryotinia fuckeliana assessed as growth inhibition at 50 ppm after 48 hr relative to untreated control
[2] = system: Aspergillus niger; assay: Fungicidal activity against Aspergillus niger assessed as growth inhibition at 50 ppm after 48 hr relative to untreated control
[3] = system: Pythium aphanidermatum; assay: Fungicidal activity against Pythium aphanidermatum assessed as growth inhibition at 50 ppm after 48 hr relative to untreated control
[4] = system: Pleurotus ostreatus; assay: Fungicidal activity against Pleurotus ostreatus assessed as growth inhibition at 50 ppm after 48 hr relative to untreated control
[5] = system: Fusarium graminearum; assay: Fungicidal activity against Fusarium graminearum assessed as growth inhibition at 50 ppm after 48 hr relative to untreated control
[6] = system: Pyricularia oryzae; assay: Fungicidal activity against Magnaporthe oryzae assessed as growth inhibition at 50 ppm after 48 hr relative to untreated control
[7] = system: Gaeumannomyces graminis; assay: Fungicidal activity against Gaeumannomyces graminis assessed as growth inhibition at 50 ppm after 48 hr relative to untreated control

Row | SMILES | inhibition of growth at 50 ppm [1] | inhibition of growth at 50 ppm [2] | inhibition of growth at 50 ppm [3] | inhibition of growth at 50 ppm [4] | inhibition of growth at 50 ppm [5] | inhibition of growth at 50 ppm [6] | inhibition of growth at 50 ppm [7]
1 | N=C1S/C(=C\c2cccc([N+](=O)[O-])c2)C(=O)N1c1nc(-c2ccccc2)cs1 | 0% | 49.7% | 25% | 5.9% | 20.6% | 3.2% | 0%
2 | N=C1SCC(=O)N1c1nc(-c2ccc(Cl)cc2Cl)cs1 | 0% | 62.8% | 0% | 97.2% | 48.6% | 79.4% | 86.7%
3 | N=C1S/C(=C\c2ccccc2[N+](=O)[O-])C(=O)N1c1nc(-c2ccccc2)cs1 | 64.7% | 54.3% | 3.8% | 84.1% | 61.9% | 20.2% | 0%
4 | N=C1S/C(=C\c2cccc([N+](=O)[O-])c2)C(=O)N1c1nc(-c2ccc([N+](=O)[O-])cc2)cs1 | 4.7% | 52.3% | 0% | 29.8% | 51.6% | 0% | 0%
5 | N=C1S/C(=C\c2cccc([N+](=O)[O-])c2)C(=O)N1c1nc(-c2cc(F)c(Cl)cc2Cl)cs1 | 24.7% | 69.3% | 33.8% | 32.6% | 45.4% | 11.7% | 0%
6 | N=C1SCC(=O)N1c1nc(-c2ccccc2)cs1 | 3.5% | 54.3% | 8.8% | 82.6% | 21.1% | 58.8% | 60%
7 | N=C1SCC(=O)N1c1nc(-c2ccc([N+](=O)[O-])cc2)cs1 | 0% | 56.2% | 8.8% | 12.4% | 2.2% | 38.1% | 26.7%
8 | N=C1S/C(=C\c2ccccc2[N+](=O)[O-])C(=O)N1c1nc(-c2cc(F)c(Cl)cc2Cl)cs1 | 2% | 49.7% | 0% | 15.2% | 48.5% | 50.4% | 0%
9 | N=C1S/C(=C\c2ccccc2)C(=O)N1c1nc(-c2cc(F)c(Cl)cc2Cl)cs1 | 28.7% | 47.7% | 0% | 11.5% | 38.1% | 4.1% | 0%
10 | N=C1SCC(=O)N1c1nc(-c2ccc(Cl)cc2)cs1 | 0% | 52.3% | 3.8% | 72.4% | 29.7% | 58.8% | 51.3%
11 | N=C1S/C(=C\c2ccccc2[N+](=O)[O-])C(=O)N1c1nc(-c2ccc([N+](=O)[O-])cc2)cs1 | 33.3% | 62.8% | 16.3% | 7.2% | 24.7% | 3.2% | 0%
12 | N=C1S/C(=C\c2cccc([N+](=O)[O-])c2)C(=O)N1c1nc(-c2ccc(Cl)cc2)cs1 | 71.3% | 58.8% | 16.3% | 84.1% | 61.9% | 26.5% | 0%
13 | N=C1S/C(=C\c2ccccc2Cl)C(=O)N1c1nc(-c2ccc([N+](=O)[O-])cc2)cs1 | 60.8% | 42.7% | 28% | 0% | 28% | 2.1% | 37.1%
14 | N=C1S/C(=C\c2ccccc2Cl)C(=O)N1c1nc(-c2ccc(Cl)cc2)cs1 | 0% | 40.8% | 46.2% | 0% | 31.8% | 0% | 0%
15 | N=C1S/C(=C\c2ccccc2[N+](=O)[O-])C(=O)N1c1nc(-c2ccc(Cl)cc2)cs1 | 66.7% | 60.8% | 12.5% | 84.8% | 58.8% | 14.8% | 0%
16 | N=C1SCC(=O)N1c1nc(-c2cc(F)c(Cl)cc2Cl)cs1 | 38.2% | 58.8% | 12.5% | 95% | 38.8% | 76.3% | 91.3%
17 | N=C1S/C(=C\c2ccccc2Cl)C(=O)N1c1nc(-c2ccccc2)cs1 | 27.5% | 23.6% | 17.2% | 0% | 37.4% | 0% | 0%
